Source: patent publication US20150296773A1, “COMPOSITIONS COMPRISING A […] MIXTURE AND AN INSECTICIDE” (Bayer CropScience AG, priority 2012, published 2015)

Assays:
Format in all cases: in vivo
Phaedon cochleariae = Phaedon cochleariae spray test (Example D, Chinese cabbage leaf-disks); settings: mortality after 6 d
Experimental: Phaedon cochleariae—Spray Test
Solvent: 78.0 parts by weight of acetone • • 1.5 parts by weight of dimethylformamide Emulsifier: 0.5 parts by weight of alkylaryl polyglycolether
(§1) To produce a suitable preparation of active compound, 1 part by weight of active compound is mixed with the stated amount of solvent and emulsifier, and the concentrate is diluted with emulsifier-containing water to the desired concentration. To produce a suitable preparation of a spore suspension the spores are diluted with emulsifier-containing water to the desired concentration.
Chinese cabbage (Brassica pekinensis) leaf-disks are sprayed with a preparation of the active ingredient of the desired concentration. Once dry, the leaf disks are infested with mustard beetle larvae (Phaedon cochleariae).
After the specified period of time, mortality in % is determined 100% means all beetle larvae have been killed and 0% means none of the beetle larvae have been killed. The mortality values determined thus are recalculated using the Colby-formula (see above).

Myzus persicae [1] = assay: Myzus persicae spray test (Example A, pepper leaves); settings: for Efficacy in % after 5 d: mortality after 5 d; for Efficacy in % after 4 d: mortality after 4 d
Experimental: (§2) Myzus persicae—Spray Test
(§3) Solvent: 7 parts by weight of dimethylformamide Emulsifier: 2 parts by weight of alkylaryl polyglycolether
(§4) To produce a suitable preparation of active compound, 1 part by weight of active compound is mixed with the stated amount of solvent and emulsifier, and the concentrate is diluted with emulsifier-containing water to the desired concentration. To produce a suitable preparation of a spore suspension the spores are diluted with emulsifier-containing water to the desired concentration Ammonium salt and/or penetration enhancer in a dosage of 1000 ppm are added to the desired concentration, if necessary.
Pepper leaves (Capsicum annuum) which are heavily infested by the green peach aphid (Myzus persicae) are treated by being sprayed with the preparation of the active compound of the desired concentration.
After the specified period of time, mortality in % is determined 100% means all the aphids have been killed; 0% means none of the aphids have been killed. The mortality values determined thus are recalculated using the Colby-formula (see above).

Aphis gossypii = Aphis gossypii spray test (Example B, cotton leaves); settings: mortality after 1 d
Experimental: Aphis gossypii—Spray Test
as §3, §4
Cotton leaves (Gossypium hirsutum) which are heavily infested by the cotton aphid (Aphis gossypii) are treated by being sprayed with the preparation of the active compound of the desired concentration.
After the specified period of time, the mortality in % is determined 100% means all the aphids have been killed; 0% means none of the aphids have been killed. The mortality values determined thus are recalculated using the Colby-formula (see above).

Myzus persicae [2] = assay: Myzus persicae spray test (Example G, Chinese cabbage leaf-disks); settings: for Efficacy in % after 6 d: mortality after 6 d; for Efficacy in % after 1 d: mortality after 1 d
Experimental: as §2
(§5) Solvent: 78.0 parts by weight acetone • 1.5 parts by weight dimethylformamide Emulsifier: 0.5 parts by weight alkylarylpolyglycolether
as §1
Chinese cabbage (Brassica pekinensis) leaf—disks infected with all instars of the green peach aphid (Myzus persicae) are sprayed with a preparation of the active ingredient of the desired concentration.
After the specified period of time, mortality in % is determined 100% means all aphids have been killed; 0% means none of the aphids have been killed. The mortality values determined thus are recalculated using the Colby-formula (see above).

Tetranychus urticae [3] = assay: Tetranychus urticae spray test, OP-resistant (Example H, French beans); settings: for Efficacy in % after 6 d: mortality after 6 d; for Efficacy in % after 2 d: mortality after 2 d
Experimental: (§6) Tetranychus urticae—Spray Test, OP-Resistant
as §5, §1
French beans (Phaseolus vulgaris) which are heavily infested with all stages of the two spotted spidermite (Tetranychus urticae), are sprayed with a preparation of the active ingredient of the desired concentration.
After the specified period of time, mortality in % is determined 100% means all spider mites have been killed and 0% means none of the spider mites have been killed. The mortality values determined thus are recalculated using the Colby-formula (see above).

Spodoptera frugiperda [4] = assay: Spodoptera frugiperda test (SPODFR) (Example F, maize leaves); settings: 0.075 g ai/ha; mortality after 3 d
Experimental: Spodoptera frugiperda—Test (SPODFR)
Solvent: 7 parts by weight of dimethylformamide Emulsifier: 1 part by weight of alkylaryl polyglycolether
(§7) To produce a suitable preparation of active compound, 1 part by weight of active compound is mixed with the stated amount of solvent and emulsifier, and the concentrate is diluted with emulsifier-containing water to the desired concentration. To produce a suitable preparation of a spore suspension the spores are diluted with emulsifier-containing water to the desired concentration Ammonium salt and/or penetration enhancer in a dosage of 1000 ppm are added to the desired concentration if necessary.
Maize leaves (Zea mais) are treated by being sprayed with the preparation of the active compound of the desired concentration and are infested with caterpillars of the fall army worm (Spodoptera frugiperda). The mortality values determined thus are recalculated using the Colby-formula (see above).
After the specified period of time, mortality in % is determined 100% means all the caterpillars have been killed; 0% means none of the caterpillars have been killed.

Tetranychus urticae [5] = assay: Tetranychus urticae spray test, OP-resistant (Example C, bean plants); settings: 0.8 ppm; mortality after 6 d
Experimental: as §6, §3, §7
Bean plants (Phaseolus vulgaris) which are heavily infested with all stages of the two-spotted spider mite (Tetranychus urticae) are treated by being sprayed with the preparation of the active compound of the desired concentration.
After the specified period of time, mortality in % is determined 100% means all the spider mites have been killed; 0% means none of the spider mites have been killed. The mortality values determined thus are recalculated using the Colby-formula (see above).

Spodoptera frugiperda [6] = assay: Spodoptera frugiperda spray test (Example E, maize leaf sections); settings: 0.032 g ai/ha; mortality after 6 d
Experimental: Spodoptera frugiperda—Spray Test
as §5
To produce a suitable preparation of the active compound, 1 part by weight of active compound is mixed with the stated amount of solvent and emulsifier, and the concentrate is diluted with emulsifier-containing water to the desired concentration. To produce a suitable preparation of spore suspension the spores are diluted with emulsifier-containing water to the desired concentration.
Maize (Zea mais) leaf sections are sprayed with a preparation of the active ingredient of the desired concentration. Once dry, the leaf sections are infested with fall armyworm larvae (Spodoptera frugiperda).
After the specified period of time, mortality in % is determined 100% means all caterpillars have been killed and 0% means none of the caterpillars have been killed. The mortality values determined thus are recalculated using the Colby-formula (see above).

Molecule: Cc1c(F)c(F)c(COC(=O)[C@@H]2[C@H](/C=C(\Cl)C(F)(F)F)C2(C)C)c(F)c1F (racemic) [Tefluthrin]
- Efficacy in % after 6 d (Phaedon cochleariae; 10 g ai/ha): 0%

Molecule: CNC(=O)c1cc(Cl)cc(C)c1NC(=O)c1cc(Br)nn1-c1ncccc1Cl [Chlorantraniliprole]
- Efficacy in % after 5 d (Myzus persicae [1]; 8 ppm): 60%
- Efficacy in % after 1 d (Aphis gossypii; 4 ppm): 10%
- Efficacy in % after 1 d (Aphis gossypii; 8 ppm): 50%

Molecule: CN/C(=N\[N+](=O)[O-])NCc1cnc(Cl)s1 [Clothianidin]
- Efficacy in % after 4 d (Myzus persicae [1]; 0.125 ppm): 3%
- Efficacy in % after 4 d (Myzus persicae [1]; 0.25 ppm): 10%
- Efficacy in % after 4 d (Myzus persicae [1]; 0.5 ppm): 65%
- Efficacy in % after 6 d (Phaedon cochleariae; 20 g ai/ha): 50%
- Efficacy in % after 1 d (Aphis gossypii; 0.25 ppm): 3%
- Efficacy in % after 1 d (Aphis gossypii; 0.5 ppm): 8%

Molecule: CNC(=O)c1cc(C#N)cc(C)c1NC(=O)c1cc(Br)nn1-c1ncccc1Cl [Cyantraniliprole]
- Efficacy in % after 6 d (Myzus persicae [2]; 0.8 g ai/ha): 0%
- Efficacy in % after 6 d (Phaedon cochleariae; 0.8 g ai/ha): 0%

Molecule: CC1(C)[C@H](C(=O)O[C@H](C#N)c2cccc(Oc3ccccc3)c2)[C@@H]1C=C(Br)Br [Deltamethrin]
- Efficacy in % after 6 d (Tetranychus urticae [3]; 4 g ai/ha): 0%

Molecule: N#Cc1nn(-c2c(Cl)cc(C(F)(F)F)cc2Cl)c(N)c1[S+]([O-])C(F)(F)F (centres unmarked) [Fipronil]
- Efficacy in % after 6 d (Myzus persicae [2]; 100 g ai/ha): 0%
- Efficacy in % after 6 d (Tetranychus urticae [3]; 100 g ai/ha): 0%

Molecule: Cc1cc(C(F)(C(F)(F)F)C(F)(F)F)ccc1NC(=O)c1cccc(I)c1C(=O)NC(C)(C)CS(C)(=O)=O [Flubendiamide]
- Efficacy in % after 3 d (Spodoptera frugiperda [4]): 18%

Molecule: O=C1C=C(N(Cc2ccc(Cl)nc2)CC(F)F)CO1 [Flupyradifurone]
- Efficacy in % after 6 d (Myzus persicae [2]; 0.8 g ai/ha): 0%

Molecule: Cc1cc(F)c(-n2nc(C(F)(F)F)nc2N)cc1[S+]([O-])CC(F)(F)F (centres unmarked) [I277, 1-{2-fluoro-4-methyl-5-[(2,2,2-trifluorethyl)sulfinyl]phenyl}-3-(trifluoromethyl)-1H-1,2,4-triazol-5-amine]
- Efficacy in % after 6 d (Tetranychus urticae [3]; 4 g ai/ha): 70%
- Efficacy in % after 6 d (Tetranychus urticae [5]): 25%

Molecule: O=[N+]([O-])NC1=NCCN1Cc1ccc(Cl)nc1 [Imidacloprid]
- Efficacy in % after 1 d (Myzus persicae [2]; 0.16 g ai/ha): 70%

Molecule: CNC(=O)Oc1cc(C)c(SC)c(C)c1 [Methiocarb]
- Efficacy in % after 6 d (Myzus persicae [2]; 500 g ai/ha): 0%
- Efficacy in % after 6 d (Tetranychus urticae [3]; 100 g ai/ha): 20%

Molecule: Cc1cc(C)c(C2=C(OC(=O)CC(C)(C)C)C3(CCCC3)OC2=O)c(C)c1 [Spiromesifen]
- Efficacy in % after 6 d (Tetranychus urticae [3]; 0.8 g ai/ha): 30%

Molecule: CCOC(=O)OC1=C(c2cc(C)ccc2C)C(=O)N[C@]12CC[C@@H](OC)CC2 [Spirotetramat]
- Efficacy in % after 6 d (Myzus persicae [2]; 0.8 g ai/ha): 0%
- Efficacy in % after 6 d (Tetranychus urticae [3]; 0.8 g ai/ha): 0%

Molecule: CC(c1ccc(C(F)(F)F)nc1)S(C)(=O)=NC#N (centres unmarked) [Sulfoxaflor]
- Efficacy in % after 6 d (Myzus persicae [2]; 0.16 g ai/ha): 70%

Molecule: N#C/N=C1\SCCN1Cc1ccc(Cl)nc1 [Thiacloprid]
- Efficacy in % after 6 d (Myzus persicae [2]; 0.16 g ai/ha): 0%

Molecule: CN1COCN(Cc2cnc(Cl)s2)/C1=N\[N+](=O)[O-] [Thiamethoxam]
- Efficacy in % after 1 d (Myzus persicae [2]; 0.8 g ai/ha): 70%

Molecule: CS/C(C)=N\OC(=O)N(C)SN(C)C(=O)O/N=C(\C)SC [Thiodicarb]
- Efficacy in % after 6 d (Myzus persicae [2]; 100 g ai/ha): 0%

Molecule: CC1(C)C(C=C(Cl)Cl)C1C(=O)OC(C#N)c1ccc(F)c(Oc2ccccc2)c1 (stereo not drawn) [β-Cyfluthrin, beta-Cyfluthrin]
- Efficacy in % after 6 d (Myzus persicae [2]; 0.16 g ai/ha): 0%
- Efficacy in % after 6 d (Tetranychus urticae [3]; 4 g ai/ha): 0%

Molecule: Abamectin
- Efficacy in % after 5 d (Myzus persicae [1]; 2 ppm): 30%

Molecule: Spinetoram
- Efficacy in % after 6 d (Spodoptera frugiperda [6]): 33%
- Efficacy in % after 2 d (Tetranychus urticae [3]; 4 g ai/ha): 20%

Molecule: Spinosad
- Efficacy in % after 2 d (Tetranychus urticae [3]; 4 g ai/ha): 0%
